According to patent publication US10023593B2, “ALK kinase inhibitor, and preparation method and uses thereof” (BEIJING PEARL BIOTECHNOLOGY LIMITED LIABILITY COMPANY, priority 2014, dated 2018):

Experiments:
[1] = target: T1, L1196M mutant ALK kinase (Homo sapiens, UniProt Q9UM73, L1196M); experiment: HTRF KinEASE-TK assay, inhibitory activity on L1196M mutant ALK kinase; format: biochemical; details: L1196M mutant ALK 1 ng/μl, substrate 1 μM, ATP 5 μM, 30° C. 35 minutes, read-out: Inhibition on ALK kinases (L1196M mutant), IC50
T1 construct: purchased Sino-US Crown Bioscience, Inc. batch number ALKm_20110923
T1 sequence (Q9UM73 19-1620 L1196M): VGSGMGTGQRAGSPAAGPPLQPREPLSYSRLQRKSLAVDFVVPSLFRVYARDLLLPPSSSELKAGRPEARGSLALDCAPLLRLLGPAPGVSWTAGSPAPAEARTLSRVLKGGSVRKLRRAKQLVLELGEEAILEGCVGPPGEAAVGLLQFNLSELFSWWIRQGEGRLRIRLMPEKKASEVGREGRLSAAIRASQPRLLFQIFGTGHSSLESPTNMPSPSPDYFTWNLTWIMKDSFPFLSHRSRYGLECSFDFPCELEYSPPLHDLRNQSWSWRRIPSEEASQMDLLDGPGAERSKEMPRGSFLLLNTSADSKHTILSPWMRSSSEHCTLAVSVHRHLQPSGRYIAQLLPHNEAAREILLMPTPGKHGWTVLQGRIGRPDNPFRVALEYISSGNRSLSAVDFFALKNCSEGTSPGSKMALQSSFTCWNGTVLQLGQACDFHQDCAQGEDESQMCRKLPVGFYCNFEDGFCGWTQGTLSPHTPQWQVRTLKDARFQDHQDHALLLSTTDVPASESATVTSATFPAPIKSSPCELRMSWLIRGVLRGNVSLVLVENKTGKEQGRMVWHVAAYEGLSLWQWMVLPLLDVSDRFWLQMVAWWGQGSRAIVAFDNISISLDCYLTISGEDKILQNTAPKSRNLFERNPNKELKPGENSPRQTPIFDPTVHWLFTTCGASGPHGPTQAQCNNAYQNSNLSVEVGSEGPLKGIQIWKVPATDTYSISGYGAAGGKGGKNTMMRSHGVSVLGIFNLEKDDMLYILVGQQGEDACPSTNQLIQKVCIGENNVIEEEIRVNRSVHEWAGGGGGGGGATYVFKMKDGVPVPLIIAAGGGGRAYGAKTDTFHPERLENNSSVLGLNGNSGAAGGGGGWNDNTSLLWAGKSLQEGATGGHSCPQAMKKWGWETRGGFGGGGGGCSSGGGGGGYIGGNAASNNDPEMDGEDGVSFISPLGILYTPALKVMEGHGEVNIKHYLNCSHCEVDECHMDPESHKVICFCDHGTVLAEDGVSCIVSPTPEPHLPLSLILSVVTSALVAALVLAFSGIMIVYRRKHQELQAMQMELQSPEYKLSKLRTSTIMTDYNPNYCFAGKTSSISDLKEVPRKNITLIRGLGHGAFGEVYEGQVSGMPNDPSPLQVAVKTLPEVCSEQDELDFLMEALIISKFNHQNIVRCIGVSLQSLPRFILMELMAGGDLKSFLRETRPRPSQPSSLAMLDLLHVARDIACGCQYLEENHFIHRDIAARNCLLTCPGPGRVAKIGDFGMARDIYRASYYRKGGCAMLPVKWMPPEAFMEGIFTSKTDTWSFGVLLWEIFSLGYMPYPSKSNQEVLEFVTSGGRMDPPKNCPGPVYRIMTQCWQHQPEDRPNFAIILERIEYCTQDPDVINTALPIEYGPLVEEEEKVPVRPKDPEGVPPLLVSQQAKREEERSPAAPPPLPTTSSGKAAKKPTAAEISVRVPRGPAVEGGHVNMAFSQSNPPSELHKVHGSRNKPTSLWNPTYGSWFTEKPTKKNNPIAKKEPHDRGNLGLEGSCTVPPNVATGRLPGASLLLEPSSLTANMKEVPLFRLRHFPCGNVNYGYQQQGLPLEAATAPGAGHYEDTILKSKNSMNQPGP
Excerpt: 2. Inhibitory Activities of the Compounds of the Present Invention on L1196M Mutant ALK Kinases
? experimental method ? HTRF KinEASE™-TK Assay kit from Cisbio company was used to detect inhibitory activities of the compounds on L1196M mutant ALK kinases.
? instrument ? Envision 2104 plate reader from PerKinElmer company.
? experiment material ? HTRF KinEASE™-TK Assay Kit (Cisbio company, catalog No. 62TK0PEC); L1196M mutant ALK kinase (produced by Sino-US Crown Bioscience, Inc., batch number ALKm_20110923); DTT (Gibco BRL company, catalog No. 15508-012); MgCl2 (Sigma Aldrich company, catalog No. M-2670); ATP (Sigma Aldrich company, catalog No. A-7699, batch number 051M7014V); DMSO (AMRESCO company, catalog No. 0231); EDTA (AMRESCO company, catalog No. 0105); 96 wells plates (for diluting compounds) (CITOTEST company, catalog No. Ref36020096D); OptiPlate™-384 (White), PerkinElmer company, catalog No. P12-004)
? experimental condition ? Compounds (the final concentration of DMSO was 1%), the reaction substrate (the final concentration was 1 μM), ATP (the final concentration was 5 μM), and L1196M mutant ALK kinases (the final concentration was 1 ng/μl) were mixed respectively in a final volume of 10 μl reaction system (containing 5 mM MgCl2, 1× Kinase buffer, and 1 mM DTT). The mixture was reacted at 30° C. for 35 minutes after shaking for 30 seconds. After completion of the reaction, each well was added with 5 μl Sa-XL665 and 5 μl TK Antibody-Eu(K), and placed in the dark for 60 minutes to end the reaction after uniform mixing. The data was read from PerkinElmer EnVision plate reader ([…]), the 665/615 ratio was calculated, and the data was analyzed.
? tested samples ? Compounds from the examples.
? data analysis ? Minimum 665/615 ratio (Rmin, 665/615 ratio under the condition that 10.4 μM positive control drug LDK-378 was added)
Maximum 665/615 ratio (Rmax, 665/615 ratio under the condition that no compound was added)
Tested 665/615 ratio (Rcompound, 665/615 ratio under the condition that a given concentration of compound was added) Inhibition rate (%)=[1−(Rcompound−Rmin)/(Rmax−Rmin)]×100
(§1) ? data processing ? IC50 of compounds was calculated by using XLfit program in Excel.

[2] = test system: Karpas-299 cell line; experiment: CellTiter-Glo cell proliferation inhibition on Karpas-299 cell line; format: cell-based; details: Homo sapiens, 96 h, Karpas-299 cells, 5000 cells/well, 4 days drug treatment
Procedure: 4. Cell Proliferation Inhibitory Activities of the Compounds of the Present Invention on Karpas-299 Cell Line
? experimental method ? CellTiter-Glo® Luminescent Cell Viability Assay kit from Promega company was used to detect cell proliferation inhibitory activities of the compounds on Karpas-299 cell line.
? instrument ? Envision 2104 plate reader from PerKinElmer company; Vi-Cell XR cell counter from Beckman Counter company; MCO-18AIC CO2 incubator from SANYO company.
? experiment material ? CellTiter-Glo® Luminescent Cell Viability Assay Kit (Promega company, catalog No. G7573); Karpas-299 cell line (DSMZ, catalog No. ACC31); RPMI-1640 medium (HyClone company, catalog No. SH30809.01B); fetal bovine serum (FBS) (Gibco company, catalog No. 10099-141); PBS (HyClone company, catalog No. SH30256.01B); 96 wells cell culture plate (Corning company, catalog No. 3610); DMSO (AMRESCO company, catalog No. 0231); 96 wells plates (for diluting compounds) (CITOTEST company, catalog No. Ref36020096D);
? experimental condition ? Karpas-299 cells in exponential growth phase were collected and viable cells were counted by Vi-Cell XR cell counter. Cell suspension was adjusted to 62500 cells/ml with culture medium (RPMI-1640+10% FBS). 80 μl cell suspension was added into each well of 96 wells cell culture plate so that so that the final cell number of Karpas-299 cells was 5000 cells/well. The cells were cultivated in an incubator with an atmosphere of 37° C., 5% CO2 and 95% humidity for 2 hours and then each well was added with 20 μl compounds in RPMI-1640 medium solution (the final concentration of DMSO was 0.5%). 4 days after drug treatment, each well was added with 50 μl CellTiter-Glo solution which was previously thawed and equilibrated to room temperature, and mixed for 2 minutes with microplate shaker. After placing at room temperature for 10 minutes, luminescence reading value was measured with PerkinElmer Envision 2104 plate reader and the data was analyzed.
? tested samples ? Compounds of the examples.
Luminescence value of DMSO solvent control (Vvehicle control, which is the mean luminescence value from DMSO solvent control group)
Tested luminescence value (Vsample, which is the luminescence value from given concentration of compounds group) Inhibition rate (%)=(1−Vsample/Vvehicle control)×100
as §1

SMILES	IC50 [1] [nM]	IC50 [2] [nM]
CC(C)S(=O)(=O)c1nn(C)cc1Nc1nc(Nc2ccc(C3=CCNCC3)cc2OC2CC2)ncc1Cl [Final product 14]	6	19
Cc1cc(Nc2ncc(Cl)c(Nc3cn(C)nc3S(=O)(=O)CC(C)C)n2)c(OC2CC2)cc1C1CCN(C(C)C)CC1 [Final product 127]	12	30
CC(C)S(=O)(=O)c1nn(C)cc1Nc1nc(Nc2ccc(C3CCNC3)cc2OC2CC2)ncc1Cl (stereo not drawn) [Final product 15]	5	9
Cc1cc(Nc2ncc(Cl)c(Nc3cn(C)nc3S(=O)(=O)C(C)C)n2)c(OCC2CC2)cc1C1CCN(C)CC1 [Final product 39]	48	74
Cc1cc(Nc2ncc(Cl)c(Nc3cn(C)nc3S(=O)(=O)C(C)C)n2)c(OC2CCC2)cc1C1CCN(CCO)CC1 [Final product 138]	8	6
Cc1cc(Nc2ncc(Cl)c(Nc3cn(C)nc3S(=O)(=O)C(C)C)n2)c(OC(F)(F)F)cc1C1CCNCC1 [Final product 10]	13	20
Cc1cc(Nc2ncc(Cl)c(Nc3cn(C)nc3S(=O)(=O)CC(C)C)n2)c(OC(C)C)cc1C1CN(C)C1 [Final product 36]	15	62
Cc1cc(Nc2ncc(Cl)c(Nc3cn(C)nc3S(=O)(=O)C(C)C)n2)c(OC2CC2)cc1C1CCN(C2CC2)CC1 [Final product 157]	11	13
Cc1cc(Nc2ncc(Cl)c(Nc3cn(C)nc3S(=O)(=O)C(C)C)n2)c(OC(F)(F)F)cc1C1CCN(C)CC1 [Final product 31]	10	20
Cc1cc(Nc2ncc(Cl)c(Nc3cn(C)nc3S(=O)(=O)C(C)C)n2)c(OC2CC2)cc1C1CCN(C(=O)C(C)(C)C)CC1 [Final product 164, 1-pivaloyl-4-(4-(5-chloro-4-(3-(isopropylsulfonyl)-1-methyl-1H-pyrazol-4-amino)pyrimidin-2-amine)-5-cyclopropoxy-2-methylphenyl)piperidine]	56	15
Cc1cc(Nc2ncc(Cl)c(Nc3cn(C)nc3S(=O)(=O)CC(C)C)n2)c(OC(C)C)cc1C1CCNCC1 [Final product 6]	7	24
Cc1cc(Nc2ncc(Cl)c(Nc3cn(C)nc3S(=O)(=O)C(C)C)n2)c(OC2CC2)cc1[C@H]1CC[C@@H](N(C)C)CC1 [Final product 189]	7	6
Cc1cc(Nc2ncc(Cl)c(Nc3cn(C)nc3S(=O)(=O)C(C)C)n2)c(OC(C)C)cc1C1CCN(C)C1 (stereo not drawn) [Final product 37]	4	11
CC(C)CS(=O)(=O)c1nn(C)cc1Nc1nc(Nc2ccc(C3CCNC3)cc2OC2CC2)ncc1Cl (stereo not drawn) [Final product 18]	4	28
CC(C)S(=O)(=O)c1nn(C2CC2)cc1Nc1nc(Nc2cc(Cl)c(C3CCNCC3)cc2OC2CC2)ncc1Cl [Final product 23]	8	38
Cc1cc(Nc2ncc(Cl)c(Nc3cn(C4CC4)nc3S(=O)(=O)C(C)C)n2)c(OC2CC2)cc1C1CCNCC1 [Final product 27]	6	19
CC(C)S(=O)(=O)c1nn(C)cc1Nc1nc(Nc2ccc(C3CCN(S(C)(=O)=O)C3)cc2OC2CC2)ncc1Cl (stereo not drawn) [Final product 172]	9	17

SMILES	IC50 [1] [nM]	IC50 [2] [nM]
Cc1cc(Nc2ncc(Cl)c(Nc3cn(C)nc3S(=O)(=O)C(C)C)n2)c(OC2CC2)cc1C1CCN(C(=O)C2CC2)CC1 [Final product 162, 1-cyclopropylformyl-4-(4-(5-chloro-4-(3-(isopropylsulfonyl)-1-methyl-1H-pyrazol-4-amino)pyrimidin-2-amine)-5-cyclopropoxy-2-methylphenyl)piperidine]	21	24
CCN(CC)[C@H]1CC[C@H](c2cc(OC3CC3)c(Nc3ncc(Cl)c(Nc4cn(C)nc4S(=O)(=O)CC(C)C)n3)cc2C)CC1 [Final product 178]	17	18
CC(C)S(=O)(=O)c1nn(C)cc1Nc1nc(Nc2cc(Cl)c(C3CCNCC3)cc2OC2CC2)ncc1Cl [Final product 22]	12	14
CC(C)CS(=O)(=O)c1nn(C)cc1Nc1nc(Nc2ccc(C3CCNCC3)cc2OC2CC2)ncc1Cl [Final product 17]	13	36
CC(C)S(=O)(=O)c1nn(C2CC2)cc1Nc1nc(Nc2ccc(C3CCN(C)CC3)cc2OC2CC2)ncc1Cl [Final product 42]	3	3
Cc1cc(Nc2ncc(Cl)c(Nc3cn(C)nc3S(=O)(=O)C(C)C)n2)c(OC2CC2)cc1C1CCN(C=O)CC1 [Final product 159, 4-(4-(5-chloro-4-(3-(isopropylsulfonyl)-1-methyl-1H-pyrazol-4-amino)pyrimidin-2-amino)-5-cyclopropoxy-2-methylphenyl)piperidin-1-formaldehyde]	9	11
CC(C)S(=O)(=O)c1nn(C)cc1Nc1nc(Nc2ccc(C3CCN(C)C3)cc2OC2CC2)ncc1Cl (stereo not drawn) [Final product 41]	3	4
Cc1cc(Nc2ncc(Cl)c(Nc3cn(C)nc3S(=O)(=O)C(C)C)n2)c(C(F)(F)F)cc1C1CCN(C)CC1 [Final product 32]	49	74
CC(C)S(=O)(=O)c1nn(C)cc1Nc1nc(Nc2cc(F)c(C3CCNC3)cc2OC2CC2)ncc1Cl (stereo not drawn) [Final product 20]	34	56
Cc1cc(Nc2ncc(Cl)c(Nc3cn(C)nc3S(=O)(=O)C(C)C)n2)c(OC2CC2)cc1C1CN(S(C)(=O)=O)C1 [Final product 170]	95	86
Cc1cc(Nc2ncc(Cl)c(Nc3cn(C)nc3S(=O)(=O)CC(C)C)n2)c(OC2CC2)cc1[C@H]1CC[C@H](NC(C)C)CC1 [Final product 182]	22	15
Cc1cc(Nc2ncc(Cl)c(Nc3cn(C)nc3S(=O)(=O)C(C)C)n2)c(OC2CC2)cc1C1CCNCC1 [Final product 24]	4	9
Cc1cc(Nc2ncc(Cl)c(Nc3cn(C)nc3S(=O)(=O)C(C)C)n2)c(OC2CC2)cc1C1CCNC1 (stereo not drawn) [Final product 26]	6	16
Cc1cc(Nc2ncc(Cl)c(Nc3cn(C)nc3S(=O)(=O)C(C)C)n2)c(OC(C)C)cc1C1CCN(C(C)C)CC1 [Final product 126]	12	12
Cc1cc(Nc2ncc(Cl)c(Nc3cn(C)nc3S(=O)(=O)C(C)C)n2)c(OC2CC2)cc1C1=CCNCC1 [Final product 25]	5	12
Cc1cc(Nc2ncc(Cl)c(Nc3cn(C)nc3S(=O)(=O)C(C)C)n2)c(OC(CF)CF)cc1C1CCN(C)CC1 [Final product 34]	23	62
